This note sets out measurements from paper PMC12108418, “Broad-Spectrum Gramicidin S Derivatives with Potent Activity Against Multidrug-Resistant Gram-Negative ESKAPE Pathogens” (Antibiotics, 2025).

Common to all, as to type: cell-based
Experiment [1] concerns Acinetobacter baumannii (ATCC 19606). As for the experimental part: (§1) The antibacterial efficacy of peptides was assessed using the broth microdilution method in accordance with Clinical and Laboratory Standards Institute (CLSI) guidelines (M07-A10, 2015 [33]). The minimum inhibitory concentrations (MICs) were determined against Escherichia coli (ATCC 25922), Klebsiella pneumoniae (ATCC 33495), Pseudomonas aeruginosa (ATCC 27853), Acinetobacter baumannii (ATCC 19606), and Staphylococcus aureus (ATCC 29213 and ATCC USA300). Bacterial suspensions were standardised to 5 × 10^4 colony-forming units (CFUs)/well in cation-adjusted Mueller–Hinton broth (CAMHB). Peptides were dissolved in 25% DMSO and serially diluted two-fold across 96-well plates, reaching final concentrations ranging from 256 to 0.125 µg/mL. The wells were inoculated, ensuring a final volume of 100 µL per well, with a DMSO concentration of 1% (v/v) to minimise solvent interference. […] Vancomycin was used as the positive control for S. aureus. Polymyxin B served as the positive control for Gram-negative bacteria. CAMHB with 1% (v/v) DMSO (without peptides) was used as the negative control. All experiments were performed in triplicate (n = 3). Bacterial isolates were stored in tryptone soy broth with 30% glycerol at −80 °C for long-term preservation.

Experiment [2] deals with Klebsiella pneumoniae (ATCC 33495). The conditions noted are these: ATCC 33495. As for the experimental part: as §1
The test system of experiment [3] is Escherichia coli (ATCC 25922). As for the experimental part: as §1
Experiment [4] has as its system Pseudomonas aeruginosa (ATCC 27853). The following applies: ATCC 27853. As for the experimental part: as §1
[5] abbreviates: broth microdilution in CAMHB, 5 × 10^4 CFU/well, 1% DMSO, 37 °C, 16–20 h, 256 to 0.125 µg/mL, triplicate (n = 3).

Values after ≈ are worked out from the molar mass of the structure shown. Where two headings read alike, the source gives them in different places. Square brackets hold non-standard residues; d marks the D form. Peptide text beside a SMILES is read from it. Tle = CC(C)(C)[C@H](N)C(=O)O; Orn = NCCC[C@H](N)C(=O)O Bounds are passed on as bounds.

For `CC(C)C[C@@H]1NC(=O)[C@H](CCCN)NC(=O)[C@H](C(C)C)NC(=O)[C@@H]2CCCN2C(=O)[C@@H](Cc2ccccc2)NC(=O)[C@H](CC(C)C)NC(=O)[C@H](CCCN)NC(=O)[C@H](C(C)C)NC(=O)[C@@H]2CCCN2C(=O)[C@@H](Cc2ccccc2)NC1=O` [GS, gramicidin S] (cyclo(V[Orn]L[dF]PV[Orn]L[dF]P)), the “MIC A. baumannii ATCC 19606” value in experiment [1] (ATCC 19606) worked out at 8 µg/mL (≈ 7.01 µM). In addition, the “MIC K. pneumonia ATCC 33495” value in experiment [2] is given as 128 µg/mL (≈ 112 µM). The “MIC E. coli ATCC 25922” value in experiment [3] (ATCC 25922) came to 32 µg/mL (≈ 28 µM). In experiment [4], the “MIC P. aeruginosa ATCC 27853” value turned out to be 128 µg/mL (≈ 112 µM).
Take `CC(C)C[C@@H]1NC(=O)[C@H](CCCN)NC(=O)[C@H](C(C)C)NC(=O)[C@@H]2CCCN2C(=O)[C@@H](Cc2ccccc2)NC(=O)[C@H](CC(C)C)NC(=O)[C@H](CCCN)NC(=O)[C@H](C(C)C)NC(=O)[C@H](Cc2c[nH]c3ccccc23)NC(=O)[C@@H](Cc2ccccc2)NC1=O` [Peptide 2] (cyclo(L[dF]PV[Orn]L[dF]WV[Orn])): the “MIC A. baumannii ATCC 19606” value in experiment [1] (ATCC 19606) was found to be 64 µg/mL (≈ 52 µM). For the same compound, the “MIC K. pneumonia ATCC 33495” value in experiment [2] was above 256 µg/mL. Further, the “MIC E. coli ATCC 25922” value in experiment [3] (ATCC 25922) was determined as 256 µg/mL (≈ 208 µM). The “MIC P. aeruginosa ATCC 27853” value in experiment [4] is listed as above 256 µg/mL.
For the compound `CC(C)C[C@@H]1NC(=O)[C@H](CCCN)NC(=O)[C@H](C(C)C)NC(=O)[C@@H]2CCCN2C(=O)[C@@H](Cc2ccccc2)NC(=O)[C@H](CC(C)C)NC(=O)[C@H](CCCN)NC(=O)[C@H](C(C)C)NC(=O)[C@H](Cc2c[nH]c3ccccc23)NC(=O)[C@@H](Cc2c[nH]c3ccccc23)NC1=O` [Peptide 3] (cyclo(L[dF]PV[Orn]L[dW]WV[Orn])), the “MIC A. baumannii ATCC 19606” value in experiment [1] (ATCC 19606) stood at 128 µg/mL (≈ 101 µM). For the same compound, the “MIC K. pneumonia ATCC 33495” value in experiment [2] is on record as above 256 µg/mL. For the same compound, the “MIC E. coli ATCC 25922” value in experiment [3] (setting [5]) is on record as above 256 µg/mL. Moreover, in experiment [4], the “MIC P. aeruginosa ATCC 27853” value was above 256 µg/mL.
Take `CC(C)C[C@@H]1NC(=O)[C@H](CCCN)NC(=O)[C@H](C(C)C)NC(=O)[C@H](Cc2c[nH]c3ccccc23)NC(=O)[C@@H](Cc2ccccc2)NC(=O)[C@H](CC(C)C)NC(=O)[C@H](CCCN)NC(=O)[C@H](C(C)C)NC(=O)[C@H](Cc2c[nH]c3ccccc23)NC(=O)[C@@H](Cc2ccccc2)NC1=O` [Peptide 4] (cyclo(L[dF]WV[Orn]L[dF]WV[Orn])): in experiment [1] (setting [5]), the “MIC A. baumannii ATCC 19606” value was above 256 µg/mL. The “MIC K. pneumonia ATCC 33495” value in experiment [2] is reported as above 256 µg/mL. In addition, the “MIC E. coli ATCC 25922” value in experiment [3] (setting [5]) was above 256 µg/mL. Further, the “MIC P. aeruginosa ATCC 27853” value in experiment [4] is above 256 µg/mL.
With `CC(C)C[C@@H]1NC(=O)[C@H](CCCN)NC(=O)[C@H](C(C)C)NC(=O)[C@H](Cc2c[nH]c3ccccc23)NC(=O)[C@@H](Cc2c[nH]c3ccccc23)NC(=O)[C@H](CC(C)C)NC(=O)[C@H](CCCN)NC(=O)[C@H](C(C)C)NC(=O)[C@H](Cc2c[nH]c3ccccc23)NC(=O)[C@@H](Cc2ccccc2)NC1=O` [Peptide 5] (cyclo(L[dF]WV[Orn]L[dW]WV[Orn])), the “MIC A. baumannii ATCC 19606” value in experiment [1] (setting [5]) is given as above 256 µg/mL. Also, the “MIC K. pneumonia ATCC 33495” value in experiment [2] was above 256 µg/mL. For the same compound, in experiment [3] (setting [5]), the “MIC E. coli ATCC 25922” value is above 256 µg/mL. Besides, in experiment [4], the “MIC P. aeruginosa ATCC 27853” value is above 256 µg/mL.
As to `CC(C)C[C@@H]1NC(=O)[C@H](CCCN)NC(=O)[C@H](C(C)C)NC(=O)[C@@H]2CCCN2C(=O)[C@@H](Cc2ccccc2)NC(=O)[C@H](CC(C)C)NC(=O)[C@H](CCCN)NC(=O)[C@H](C(C)C)NC(=O)[C@H](Cc2c[nH]c3ccccc23)NC(=O)[C@@H](CCCNC(=N)N)NC1=O` [Peptide 8] (cyclo(L[dF]PV[Orn]L[dR]WV[Orn])), the “MIC A. baumannii ATCC 19606” value in experiment [1] (ATCC 19606) worked out at 8 µg/mL (≈ 6.45 µM). Further, the “MIC K. pneumonia ATCC 33495” value in experiment [2] was determined as 16 µg/mL (≈ 12.9 µM). The “MIC E. coli ATCC 25922” value in experiment [3] (setting [5]) was determined as 8 µg/mL (≈ 6.45 µM). Also, the “MIC P. aeruginosa ATCC 27853” value in experiment [4] was 32 µg/mL (≈ 25.8 µM).
In the case of `CC(C)C[C@@H]1NC(=O)[C@H](CCCN)NC(=O)[C@H](C(C)C)NC(=O)[C@@H]2CCCN2C(=O)[C@@H](Cc2ccccc2)NC(=O)[C@H](CC(C)C)NC(=O)[C@H](CCCN)NC(=O)[C@H](C(C)C)NC(=O)[C@@H]2CCCN2C(=O)[C@@H](CCCNC(=N)N)NC1=O` [Peptide 9] (cyclo(L[dF]PV[Orn]L[dR]PV[Orn])), the “MIC A. baumannii ATCC 19606” value in experiment [1] (ATCC 19606) stood at 8 µg/mL (≈ 6.95 µM). In experiment [2], the “MIC K. pneumonia ATCC 33495” value was 16 µg/mL (≈ 13.9 µM). Besides, in experiment [3] (ATCC 25922), the “MIC E. coli ATCC 25922” value was determined as 16 µg/mL (≈ 13.9 µM). The “MIC P. aeruginosa ATCC 27853” value in experiment [4] stood at 32 µg/mL (≈ 27.8 µM).
With `CC(C)C[C@@H]1NC(=O)[C@H](CCCN)NC(=O)[C@H](C(C)C)NC(=O)[C@@H]2CCCN2C(=O)[C@@H](CCCNC(=N)N)NC(=O)[C@H](CC(C)C)NC(=O)[C@H](CCCN)NC(=O)[C@H](C(C)C)NC(=O)[C@H](Cc2c[nH]c3ccccc23)NC(=O)[C@@H](Cc2ccccc2)NC1=O` [Peptide 10] (cyclo(L[dF]WV[Orn]L[dR]PV[Orn])), the “MIC A. baumannii ATCC 19606” value in experiment [1] (ATCC 19606) is 8 µg/mL (≈ 6.45 µM). In addition, in experiment [2], the “MIC K. pneumonia ATCC 33495” value worked out at 32 µg/mL (≈ 25.8 µM). Further, the “MIC E. coli ATCC 25922” value in experiment [3] (ATCC 25922) was 16 µg/mL (≈ 12.9 µM). Also, in experiment [4], the “MIC P. aeruginosa ATCC 27853” value amounted to 32 µg/mL (≈ 25.8 µM).
As to `CC(C)C[C@@H]1NC(=O)[C@H](CCCN)NC(=O)[C@H](C(C)C)NC(=O)[C@H](Cc2c[nH]c3ccccc23)NC(=O)[C@@H](Cc2ccccc2)NC(=O)[C@H](CC(C)C)NC(=O)[C@H](CCCN)NC(=O)[C@H](C(C)C)NC(=O)[C@H](Cc2c[nH]c3ccccc23)NC(=O)[C@@H](CCCNC(=N)N)NC1=O` [Peptide 11] (cyclo(L[dF]WV[Orn]L[dR]WV[Orn])), in experiment [1] (ATCC 19606), the “MIC A. baumannii ATCC 19606” value stood at 8 µg/mL (≈ 6.02 µM). Also, the “MIC K. pneumonia ATCC 33495” value in experiment [2] is on record as 16 µg/mL (≈ 12 µM). In addition, the “MIC E. coli ATCC 25922” value in experiment [3] (ATCC 25922) is 16 µg/mL (≈ 12 µM). In addition, the “MIC P. aeruginosa ATCC 27853” value in experiment [4] stood at 32 µg/mL (≈ 24.1 µM).
As for `CC(C)C[C@@H]1NC(=O)[C@H](CCCN)NC(=O)[C@H](C(C)(C)C)NC(=O)[C@@H]2CCCN2C(=O)[C@@H](Cc2ccccc2)NC(=O)[C@H](CC(C)C)NC(=O)[C@H](CCCN)NC(=O)[C@H](C(C)C)NC(=O)[C@@H]2CCCN2C(=O)[C@@H](Cc2ccccc2)NC1=O` [Peptide 12] (cyclo(L[dF]P[Tle][Orn]L[dF]PV[Orn])), the “MIC A. baumannii ATCC 19606” value in experiment [1] (ATCC 19606) was 8 µg/mL (≈ 6.92 µM). Further, in experiment [2], the “MIC K. pneumonia ATCC 33495” value is 128 µg/mL (≈ 111 µM). In addition, the “MIC E. coli ATCC 25922” value in experiment [3] (ATCC 25922) is on record as 32 µg/mL (≈ 27.7 µM). For the same compound, in experiment [4], the “MIC P. aeruginosa ATCC 27853” value is 128 µg/mL (≈ 111 µM).
